Data: patent publication US8017633B2, “Roflumilast for the treatment of diabetes mellitus” (Nycomed GmbH, priority 2005, dated 2011)

Tested on: C57BLKS db/db mice
Assay: 10 days study: fasting blood glucose and oral glucose tolerance in db/db mice
Type: in vivo, mouse
Settings: for Blood glucose (15 min after glucose application) / Blood glucose (before glucose application): fasted 24 h; for Blood glucose (15 min after glucose application): 15 min after oral 1 g/kg glucose; for Blood glucose (before glucose application): 1 h after dose
Method: Female C57BLKS db/db mice obtained from M&B A/S (8680 Ry, Denmark) were used in the studies at 10 to 11 weeks of age. Mice were housed 10 per cage and allowed free access to water and standard laboratory diet for rodents (chow 3433, Provimi Kliba SA, 4303 Kaiseraugst, Switzerland).
Mice were allowed to acclimate to the local animal facilities for 1 week and retro-orbital blood samples were obtained 3 to 7 days prior to the start of the study.
Mice were treated with vehicle, Roflumilast or Roflumilast-N-Oxide, respectively once daily in the morning. Roflumilast or Roflumilast-N-Oxide was suspended in 4% methocel and applied via oral gavage using oral feeding & dosing needles (outer diameter: 1.5 mm, TSE GmbH, 61350 Bad Homburg, Germany). A volume of 10 ml/kg body weight was administered for each dose.
10 days studies: Mice were treated with vehicle, Roflumilast or Roflumilast-N-Oxide once daily in the morning. On day 9, mice were fasted for 24 hours by removing standard diet for laboratory animals 1 hour after drug application. On day 10, one hour after administration of vehicle, Roflumilast or Roflumilast-N-Oxide glucose tolerance was assessed by oral application of 1 g/kg/10 ml glucose. Blood was sampled before and 15 minutes after glucose application and levels of glucose (accu-chek, Roche Diagnostics GmbH, 68298 Mannheim, Germany) were measured.

[1] = Roflumilast 1 mg/kg oral once daily 10 days
[2] = Roflumilast 10 mg/kg oral once daily 10 days

O=C(Nc1c(Cl)cncc1Cl)c1ccc(OC(F)F)c(OCC2CC2)c1 [Roflumilast, 3-cyclopropylmethoxy-4-difluoromethoxy-N-(3,5-dichloropyrid-4-yl)benzamide]
Blood glucose (15 min after glucose application) [1]: 507 mg/dL | Blood glucose (before glucose application) [1]: 347 mg/dL | Blood glucose (15 min after glucose application) [2]: 412 mg/dL | Blood glucose (before glucose application) [2]: 191 mg/dL | Effect on fasting blood glucose levels (summary in words) (db/db mice): reduce | Effect on postprandial blood glucose levels (summary in words) (db/db mice): reduce
